From patent publication US20190008864A1, “PHARMACEUTICAL COMPOSITION CONTAINING GPR119 LIGAND AS EFFECTIVE INGREDIENT FOR PREVENTING OR TREATING NON-ALCOHOLIC STEATOHEPATITIS” (PHARMEDIX.CO., LTD., priority 2014, published 2019)

Tests used:
FAS = FAS expression under high-glucose/high-insulin exposure, HepG2 (western blot); type: cell-based, human
Procedure: A 6-well plate was inoculated with HepG2 (ATCC, US), as a human hepatocyte line, and cultured until confluence in a DMEM medium containing 1% penicillin-streptomycin (Hyclone, US) and 10% fetal bovine serum (Hyclone, US) in a 5% CO2 incubator at 37° C. The medium containing 10% fetal bovine serum of the hepatocyte line grown to confluence was replaced by a medium not containing FBS. The cell line was additionally cultured for 18 hours and used as a sample for an experiment.
Sodium dodecyl sulfate-polyacrylamide gel electrophoresis (SDS-PAGE) was carried out by means of a gel electrophoresis device (Mighty Small SE 250, Hoefer Scientific Instruments, San Francisco) according to a method by Laemmli (UK, Nature 227, 680-685, 1970). […] Whether total protein contents in samples are the same is determined using anti-β-actin and anti-LaminA/C antibodies. Changes in protein expression amounts were determined by measuring the intensities of chemiluminescence signals on the blot by means of densitometry. […] Each lane was calculated using AlphaEase™ version 5.5 software and background intensity was removed from the calculated values. […]

[1] = tested on: fatty liver model induced by a high-fat diet; experiment: Fatty liver model induced by high-fat diet; type: in vivo, C57BL/6J mice
Source text: In the present invention, a high fat diet (HFD: 60% fat calories, Research diets, D12492, US) was used as an obesity induction diet.
Six-week-old male C57BL/6J mice (Central Lab. Animal Inc., Seoul, Korea) were acclimated to an experimental environment for one week while being fed solid food, and then randomly divided into a control group and an experimental group for a high-fat diet using a randomized block design. The animal groups were fed for 12 weeks, and thus, fatty liver animal models were established. Fatty liver development was determined according to blood biochemical and histochemical analysis methods. The mice were orally fed with the high-fat diet only for six weeks, and in combination with a GPR119 ligand (10 mg/kg) suspended in 40% PEG400 once a day for five days every week. Choline-deficient, amino acid-fixed high-fat diet steatohepatitis models were prepared by feeding six-week-old male C57BL/6J mice (Central Lab. Animal Inc., Seoul) with a diet containing 60 kcal fat and 0.1% methionine for four weeks. After terminating the experiment, experimental animals fasted for 12 hours or more. Subsequently, blood, liver, and adipose tissues in intestines (epididymal fat, kidney-surrounding fat) were collected from the animals that had been anesthetized with diethyl ether and then washed with a 0.1 M phosphate buffered saline (pH 7.4), followed by being weighed. Blood collected from abdominal aortas was centrifuged at 3000 rpm for 20 minutes using SST tubes to separate serum.
A total cholesterol concentration and a total glucose concentration in serum from each of the aforementioned experimental animals raised for 12 weeks were measured as follows. Each of the total cholesterol concentration and the total glucose concentration in serum was measured twice by means of a commercial measurement kit (Bio Clinical Systems). The amount of alanine aminotransferase (ALT) in blood used as a liver function index was measured by means of a commercial analysis kit (Bio Clinical Systems, Korea).
The collected liver tissues were fixed with a 10% neutral formalin solution and then subjected to a common fixation procedure and dehydration process, followed by embedding the same in paraffin. The embedded tissues were sectioned to a thickness of 4 μm and stained with H&E. The stained tissues were observed by means of an optical microscope.
A predetermined amount of each of the liver tissues was homogenized in liquid nitrogen and a cell lysis buffer in a mortar, and then a lysed tissue solution was transferred to a new tube, followed by vortexing. […] A middle layer of the centrifuged solution was collected and then subjected to protein quantification by the Bradford assay. […] Expression changes of FAS and SREBP-1c proteins were measured by western blotting. […]

[2] = tested on: mouse liver tissue and hepatocyte line; experiment: Summary statement: mouse liver tissue and hepatocyte line treated with the two GPR119 ligands; type: cell-based

- expression of acetyl CoA carboxylase (ACC) [2]: inhibited
- expression of stearoyl-CoA desaturase (SCD) [2]: inhibited
Structure (SMILES): CCc1cnc(N2CCC(c3nc(COc4ccc(-n5cnnn5)cc4)cs3)CC2)nc1 [MBX2982, 4-((4-(1H-tetrazol-1-yl)phenoxy)methyl)-2-(1-(5-ethylpyrimidin-2-yl)piperidin-4-yl)thiazole]
- FAS expression increased by high-glucose/high-insulin (FAS): inhibited
- fatty liver development ([1]; animal models fed with a high-fat diet): completely inhibited
- fat weight in the tissue ([1]; high-fat diet mice, 10 mg/kg oral): significantly decreased
- mRNA level of GPR119 in liver ([1]; mice administered ligand, compared to a control group): seven-fold increased
- activity of SREBP-1c [2]: inhibited
- expression of GPR119 [2]: increased
- expression of fatty acid synthase (FAS) [2]: inhibited
